Reference: ChEMBL document CHEMBL1201862, “PubChem BioAssay data set” (2004)
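Compound exposure: 48 hours, 5 concentrations, 96-well plates. GI50 is the concentration that inhibits growth by half.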 Active and inactive are the calls of the source. No stated cut-off is given here; in the data, active = GI50 up to about 1.1 µM and inactive = higher.

Experiments:
Test in all cases: NCI anticancer screen, dose series, 48 h
SNB-78 = system: SNB-78
LXFL 529 = system: LXFL 529
DMS-114 = system: DMS-114
DLD-1 = system: DLD-1
M19-MEL = system: M19-MEL
XF498 = system: XF498
DMS-273 = system: DMS-273
HOP-18 = system: HOP-18
RXF 631 = system: RXF 631

Compound | GI50 (SNB-78) | GI50 (LXFL 529) | GI50 (DMS-114) | GI50 (DLD-1) | GI50 (M19-MEL) | GI50 (XF498) | GI50 (DMS-273) | GI50 (HOP-18) | GI50 (RXF 631)
CCOC(=O)C(c1ccsc1)P(=O)(OCC)OCC (stereo not given) | 12.6 µM (inactive) | 12 µM (inactive) | 13.8 µM (inactive) | 12.8 µM (inactive) | 11.2 µM (inactive) | 20.9 µM (inactive) | 13.2 µM (inactive) | 28.3 µM (inactive) | –
COC(=O)CCC(=O)NC1C2CC3CC(C2)CC1C3 (stereo not given) | – | > 100 µM (inactive) | > 100 µM (inactive) | > 100 µM (inactive) | > 100 µM (inactive) | > 100 µM (inactive) | > 100 µM (inactive) | > 100 µM (inactive) | > 100 µM (inactive)
COc1ncnc2c(NC3OC(CO)C(O)C3O)ncnc12 (stereo not given) | 0.668 µM (active) | 0.505 µM (active) | 0.213 µM (active) | 0.306 µM (active) | – | 0.902 µM (active) | 0.152 µM (active) | < 0.01 µM (active) | 0.3 µM (active)
Clc1ccc(-c2nnc3c4nnc(-c5ccc(Cl)cc5Cl)n4c4ccccc4n23)c(Cl)c1 | 34.4 µM (inactive) | > 100 µM (inactive) | > 100 µM (inactive) | > 100 µM (inactive) | > 100 µM (inactive) | > 100 µM (inactive) | > 100 µM (inactive) | – | –
COC(=O)/C(=N\NC(N)=O)C(C#N)c1ccccc1 (stereo not given) | > 100 µM (inactive) | > 100 µM (inactive) | > 100 µM (inactive) | > 100 µM (inactive) | > 100 µM (inactive) | 75.5 µM (inactive) | – | > 100 µM (inactive) | –
Cc1c2ccccc2cc2ccc3oc([N+](=O)[O-])cc3c12 | > 100 µM (inactive) | > 100 µM (inactive) | > 100 µM (inactive) | > 100 µM (inactive) | > 100 µM (inactive) | > 100 µM (inactive) | > 100 µM (inactive) | 2 µM (inactive) | –
N#CC(C(=O)C(=O)Nc1ccc(Cl)cc1)c1ccccc1 (stereo not given) | > 100 µM (inactive) | > 100 µM (inactive) | > 100 µM (inactive) | > 100 µM (inactive) | > 100 µM (inactive) | – | > 100 µM (inactive) | > 100 µM (inactive) | > 100 µM (inactive)
COc1ccc(/C=C2\N=C(c3ccccc3)OC2=O)c(OCc2ccccc2)c1 | – | 38.2 µM (inactive) | 31.1 µM (inactive) | 17.7 µM (inactive) | 38.3 µM (inactive) | – | 32.3 µM (inactive) | > 100 µM (inactive) | –
O/N=C1\CCCCC1C(NO)c1ccccc1 (stereo not given) | > 100 µM (inactive) | > 100 µM (inactive) | 67 µM (inactive) | > 100 µM (inactive) | > 100 µM (inactive) | – | > 100 µM (inactive) | > 100 µM (inactive) | > 100 µM (inactive)
O=C(Cc1nc2ccccc2o1)C(=O)Nc1cccc(Cl)c1 | > 100 µM (inactive) | > 100 µM (inactive) | > 100 µM (inactive) | > 100 µM (inactive) | > 100 µM (inactive) | > 100 µM (inactive) | – | > 100 µM (inactive) | –
CN(C)CCCn1cnc2ncccc2c1=O | > 100 µM (inactive) | > 100 µM (inactive) | 48.5 µM (inactive) | > 100 µM (inactive) | > 100 µM (inactive) | > 100 µM (inactive) | > 100 µM (inactive) | – | –
CC(Oc1ccc(OCC2CCCCC2)cc1)C(N)=O (stereo not given) | > 100 µM (inactive) | > 100 µM (inactive) | 73.6 µM (inactive) | > 100 µM (inactive) | > 100 µM (inactive) | > 100 µM (inactive) | > 100 µM (inactive) | > 100 µM (inactive) | –
Cc1nc(=O)n2c(C)n[nH]c2c1C(=O)O | > 100 µM (inactive) | > 100 µM (inactive) | > 100 µM (inactive) | > 100 µM (inactive) | > 100 µM (inactive) | > 100 µM (inactive) | – | – | –
O=C(C/C(=N\NC(=O)C[n+]1ccccc1)C(=O)Nc1nc2ccc([N+](=O)[O-])cc2s1)CC(c1ccccc1)c1c(O)c2ccccc2oc1=O (stereo not given) | – | – | > 100 µM (inactive) | > 100 µM (inactive) | > 100 µM (inactive) | – | – | – | –
CC1=C(C(=O)Nc2cc(F)c(F)cc2F)C(c2ccc([N+](=O)[O-])cc2)C(C(=O)Nc2cc(F)c(F)cc2F)=C(C)N1 | 26.1 µM (inactive) | 39.7 µM (inactive) | 15.3 µM (inactive) | 30.5 µM (inactive) | 57.7 µM (inactive) | – | – | – | –
Cc1ccc(C(=O)CC2(O)C(=O)Nc3c(C)cc(Cl)cc32)cc1 (stereo not given) | > 100 µM (inactive) | > 100 µM (inactive) | 52.1 µM (inactive) | > 100 µM (inactive) | – | > 100 µM (inactive) | > 100 µM (inactive) | > 100 µM (inactive) | > 100 µM (inactive)
CCOC(=O)C(Cc1c(C=O)[nH]c2ccccc12)(NC(=O)c1ccccc1)C(=O)OCC | – | – | 19.8 µM (inactive) | 7.93 µM (inactive) | 16 µM (inactive) | 16.4 µM (inactive) | – | > 10 µM (inactive) | –
c1ccc(CSc2nc3ccccc3nc2-c2cccs2)cc1 | > 100 µM (inactive) | > 100 µM (inactive) | > 100 µM (inactive) | > 100 µM (inactive) | > 100 µM (inactive) | > 100 µM (inactive) | > 100 µM (inactive) | > 100 µM (inactive) | –
Cc1ccccc1NC(=O)c1cc(-c2ccc([N+](=O)[O-])cc2)nc(S)n1 | > 100 µM (inactive) | > 100 µM (inactive) | > 100 µM (inactive) | > 100 µM (inactive) | – | – | > 100 µM (inactive) | > 100 µM (inactive) | > 100 µM (inactive)
O=C(/C=C/c1ccc(O)c(O)c1)OC1C[C@@](O)(C(=O)O)C[C@@H](O)[C@H]1OC(=O)/C=C/c1ccc(O)c(O)c1 (stereo not given in full) | > 100 µM (inactive) | > 100 µM (inactive) | > 100 µM (inactive) | > 100 µM (inactive) | > 100 µM (inactive) | > 100 µM (inactive) | > 100 µM (inactive) | > 100 µM (inactive) | –
